Results published in patent publication US20150315188A1, “COMPOUNDS AND METHODS FOR TREATMENT OF HYPERTENSION” (MEDIVATION TECHNOLOGIES, INC., priority 2012, published 2015).

Experiments:
[1] = molecular target: T1, Human adrenergic α1B receptor (Homo sapiens, UniProt P35368); test: Radioligand binding, adrenergic α1B (Protocol Group B); parameters: purchased Milipore (Millipore); conditions: for Percentage inhibition of ligand binding, Adrenergic α1B (0.1 μM) / inhibition at 0.1 µM: 0.1 μM compound; for Percentage inhibition of ligand binding, Adrenergic α1B (0.1 μM) / Percentage inhibition of ligand binding, Adrenergic α1B (0.3 μM) / Ki / inhibition at 0.1 µM / inhibition at 0.3 µM: Protocol Group B; for Percentage inhibition of ligand binding, Adrenergic α1B (0.3 μM) / inhibition at 0.3 µM: 0.3 μM compound; for Ki: estimated Ki; for inhibition at 0.1 µM: read-out: Percentage inhibition of ligand binding, Adrenergic α1B (0.1 μM); for inhibition at 0.3 µM: read-out: Percentage inhibition of ligand binding, Adrenergic α1B (0.3 μM)
T1 sequence (P35368 1-520): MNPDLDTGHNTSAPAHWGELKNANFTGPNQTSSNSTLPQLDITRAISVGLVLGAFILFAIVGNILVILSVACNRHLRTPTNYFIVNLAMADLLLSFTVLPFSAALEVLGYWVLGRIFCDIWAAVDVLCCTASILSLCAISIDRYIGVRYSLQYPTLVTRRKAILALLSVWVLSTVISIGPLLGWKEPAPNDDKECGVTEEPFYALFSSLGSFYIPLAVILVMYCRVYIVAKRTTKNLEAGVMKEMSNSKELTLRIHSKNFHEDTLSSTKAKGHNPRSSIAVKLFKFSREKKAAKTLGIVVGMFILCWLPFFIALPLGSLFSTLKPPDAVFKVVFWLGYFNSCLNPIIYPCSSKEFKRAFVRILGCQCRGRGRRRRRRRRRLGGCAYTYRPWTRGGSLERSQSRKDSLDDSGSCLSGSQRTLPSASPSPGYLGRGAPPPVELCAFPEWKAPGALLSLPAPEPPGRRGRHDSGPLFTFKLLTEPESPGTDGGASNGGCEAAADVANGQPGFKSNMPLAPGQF
In short: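 Values are percent inhibition of specific [3H]prazosin (0.3 nM) binding or estimated Ki, from filtration counting. Human α1B recombinant membranes, Tris-HCl pH 7.4 buffer with MgCl2 and EDTA, 60 min at 25 °C, 1% DMSO vehicle; 10 μM prazosin defined nonspecific binding.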

[2] = molecular target: T2, Human adrenergic α2A receptor (Homo sapiens, UniProt P08913); test: β-Arrestin GPCR functional assay, adrenergic α2A (Protocol B); type: cell-based; conditions: for Percentage inhibition, Adrenergic α2A: nor-epinephrine at EC80 (270 nM); for IC50: β-arrestin, antagonist vs nor-epinephrine EC80
T2 sequence (P08913 1-465): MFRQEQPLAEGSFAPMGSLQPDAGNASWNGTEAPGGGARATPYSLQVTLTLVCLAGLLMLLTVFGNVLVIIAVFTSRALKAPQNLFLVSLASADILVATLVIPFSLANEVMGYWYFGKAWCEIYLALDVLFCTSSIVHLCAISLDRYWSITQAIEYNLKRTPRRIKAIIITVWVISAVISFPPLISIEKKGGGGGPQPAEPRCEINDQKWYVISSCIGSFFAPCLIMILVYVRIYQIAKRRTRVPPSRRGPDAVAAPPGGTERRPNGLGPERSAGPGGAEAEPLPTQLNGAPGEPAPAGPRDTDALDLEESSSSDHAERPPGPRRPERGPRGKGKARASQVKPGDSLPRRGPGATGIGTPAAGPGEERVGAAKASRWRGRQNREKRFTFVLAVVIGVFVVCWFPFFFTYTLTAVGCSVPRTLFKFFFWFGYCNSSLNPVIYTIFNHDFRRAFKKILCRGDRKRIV
In short: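 Antagonist mode: after 30 min compound pretreatment at 37 °C, 270 nM norepinephrine (EC80) was added for 90 min to CHO cells expressing human α2A. Luminescent enzyme-complementation detection (60 min, RT) quantified β-arrestin recruitment, expressed as percent inhibition or IC50.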

[3] = molecular target: T2, Human adrenergic α2A receptor; test: Radioligand binding, adrenergic α2A (Protocol Group B); parameters: purchased Milipore (Millipore); conditions: for Percentage inhibition of ligand binding, Adrenergic α2A (0.1 μM) / inhibition at 0.1 µM: 0.1 μM compound; for Percentage inhibition of ligand binding, Adrenergic α2A (0.1 μM) / Percentage inhibition of ligand binding, Adrenergic α2A (0.3 μM) / Ki / inhibition at 0.1 µM / inhibition at 0.3 µM: Protocol Group B; for Percentage inhibition of ligand binding, Adrenergic α2A (0.3 μM) / inhibition at 0.3 µM: 0.3 μM compound; for Ki: estimated Ki; for inhibition at 0.1 µM: read-out: Percentage inhibition of ligand binding, Adrenergic α2A (0.1 μM); for inhibition at 0.3 µM: read-out: Percentage inhibition of ligand binding, Adrenergic α2A (0.3 μM)
In short: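 Compounds (1% DMSO vehicle, various concentrations) competed against 2 nM [^3H]MK-912 on recombinant receptor membranes for 60 min at 25° C, Tris-HCl pH 7.4 buffer with Mg2+, Ca2+, BSA. Bound radioligand filtered and counted; 10 μM rauwolscine set nonspecific binding. Values: percent inhibition of specific binding or estimated Ki.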

[4] = molecular target: T1, Human adrenergic α1B receptor; test: β-Arrestin GPCR functional assay, adrenergic α1B (Protocol B); type: cell-based; conditions: for Percentage inhibition, Adrenergic α1B: nor-epinephrine at EC80 (50 nM); for IC50: β-arrestin, antagonist vs nor-epinephrine EC80
Procedure: To evaluate the activity of compounds in β-Arrestin GPCR functional assays, recombinant CHO cell line (DiscoveRX), over expressed with human adrenergic α1B receptor were used. The experiment was done with a kit of DiscoveRX as per recommended protocol of the supplier. Cells were harvested from culture flask using cell dissociation solution (CDS) and plated at a density of 12,000 cells/well in CP reagent (supplied with the kit) in a half area 96-well white polystyrene plate. After 24 h incubation at 37° C., compounds at various concentrations in 1% (final) DMSO were charged to the cells for 30 min at 37° C. Active nor-epinephrine (-NE) at its EC80 concentrations (50 nM) were then added to the cells and incubated for another 90 min at 37° C. Detection mix was prepared by mixing Path Hunter cell assay buffer, Emerald II solution and Galactone star solution in a ratio of 19:5:1 and incubated with the cells for 60 min at RT in the dark. The reading was taken in Envision at luminescence mode. Biochemical assay results are presented as the percent Inhibition in Table B2a, or IC50 values in Table B2b.

[5] = 3.2 nM compound, concentration series, 0.0032 µM
[6] = 10 nM compound, concentration series, 0.01 µM
[7] = 0.032 μM compound, concentration series, 0.032 µM
[8] = 0.32 μM compound, concentration series, 0.32 µM
[9] = 1 μM compound, concentration series, 1 µM

Row | SMILES | Percentage inhibition of ligand binding, Adrenergic α1B (0.1 μM) [1] | Percentage inhibition of ligand binding, Adrenergic α1B (0.3 μM) [1] | Ki [1] | IC50 [2] | Percentage inhibition of ligand binding, Adrenergic α2A (0.1 μM) [3] | Percentage inhibition of ligand binding, Adrenergic α2A (0.3 μM) [3] | Ki [3] | IC50 [4] | also measured
1 | Cc1cc(C)c2c(c1)c1c(n2CC(C)(O)c2ccncc2)CCN2CCCC12 (single isomer, unassigned) [19b] | 60% | 85% | 0.0375 µM | 5.01 µM | 51% | 77% | 0.036 µM | 0.351 µM | Percentage inhibition of ligand binding, Adrenergic α1B, 1 nM ([1]; 1 nM compound, concentration series, 0.001 µM): 3%; Percentage inhibition of ligand binding, Adrenergic α1B, 3.2 nM [1, 5]: 6%; Percentage inhibition of ligand binding, Adrenergic α1B, 10 nM [1, 6]: 1%; Percentage inhibition of ligand binding, Adrenergic α1B, 0.032 μM [1, 7]: 15%; Percentage inhibition of ligand binding, Adrenergic α1B, 0.32 μM [1, 8]: 76%; Percentage inhibition of ligand binding, Adrenergic α1B, 1 μM [1, 9]: 87%; inhibition at 3.2 µM ([1]; 3.2 μM compound, concentration series, read-out: Percentage inhibition of ligand binding, Adrenergic α1B, 3.2 μM): 92%; Percentage inhibition, Adrenergic α2A ([2]; 0.1 μM compound): 24%; Percentage inhibition, Adrenergic α2A ([2]; 0.3 μM compound): 20%; Percentage inhibition of ligand binding, Adrenergic α2A, 3.2 nM [3, 5]: 12%; Percentage inhibition of ligand binding, Adrenergic α2A, 10 nM [3, 6]: 4%; Percentage inhibition of ligand binding, Adrenergic α2A, 0.032 μM [3, 7]: 27%; Percentage inhibition of ligand binding, Adrenergic α2A, 0.32 μM [3, 8]: 67%; Percentage inhibition of ligand binding, Adrenergic α2A, 1 μM [3, 9]: 84%; Percentage inhibition of ligand binding, Adrenergic α2A, 3.2 μM ([3]; 3.2 μM compound, concentration series, 3.2 µM): 95%; inhibition at 10 µM ([3]; 10 μM compound, concentration series, read-out: Percentage inhibition of ligand binding, Adrenergic α2A, 10 μM): 100%; Percentage inhibition, Adrenergic α1B ([4]; 0.1 μM compound): 25%; Percentage inhibition, Adrenergic α1B ([4]; 0.3 μM compound): 52%
2 | CC(O)(Cn1c2c(c3cc(F)ccc31)C1CCCN1CC2)c1ccncc1 (single isomer, unassigned) [31a] |  |  | 0.145 µM | 11.4 µM |  |  | 0.279 µM | 0.982 µM | inhibition at 0.1 µM [1]: 24%; inhibition at 0.3 µM [1]: 47%; inhibition at 0.1 µM [3]: 33%; inhibition at 0.3 µM [3]: 48%
3 | CC(O)(Cn1c2c(c3cc(F)ccc31)C1CCCN1CC2)c1ccncc1 (single isomer, unassigned) [31b] | 30% | 50% | 0.134 µM | 11.3 µM | 26% | 38% | 0.362 µM | 0.782 µM | 
4 | Cc1ccc2c(c1)c1c(n2CC(OC2CCCC2)c2ccncc2)CCN(C)C1 (single isomer, unassigned) [35a] | 40% | 71% | 0.06 µM | 2.39 µM | 67% | 86% | 0.0285 µM | 0.672 µM | 
5 | CCCOC(Cn1c2c(c3cc(C)ccc31)CN(C)CC2)c1ccncc1 (single isomer, unassigned) [42a] |  | 70% | 0.054 µM | 3.31 µM |  |  | 0.055 µM | 0.636 µM | inhibition at 0.1 µM [1]: 44%; inhibition at 0.1 µM [3]: 37%; inhibition at 0.3 µM [3]: 63%
6 | CCCOC(Cn1c2c(c3cc(C)ccc31)CN(C)CC2)c1ccncc1 (single isomer, unassigned) [42b] | 27% | 45% | 0.199 µM | 5.22 µM | 32% | 48% | 0.154 µM | 1.14 µM | 
7 | CCOC(Cn1c2c(c3cc(C)ccc31)CN(C)CC2)c1ccncc1 (single isomer, unassigned) [43a] | 29% | 55% | 0.111 µM | 3.57 µM | 46% | 63% | 0.05 µM | 0.67 µM | 
8 | CCOC(Cn1c2c(c3cc(C)ccc31)CN(C)CC2)c1ccncc1 (single isomer, unassigned) [43b] | 14% | 30% | 0.278 µM | 7.34 µM | 14% | 28% | 0.374 µM | 1.09 µM | 
9 | Cc1cc(C)c2c(c1)c1c(n2CC(C)(O)c2cccnc2)CCN2CCCC12 (single isomer, unassigned) [44a] | 40% |  | 0.0637 µM | 5.18 µM | 47% | 70% | 0.114 µM | 0.684 µM | inhibition at 0.3 µM [1]: 71%
